{"source": "patent US20200383906A1", "about": "(Evestra, Inc., priority 2019, published 2020)", "key": {"[1]": {"conditions": "human, cited from earlier work"}, "[2]": {"conditions": "young women, 2.0 and 4.0 mg orally; cited from earlier work"}, "[3]": {"system": "ovariectomized rodents", "conditions": "parenteral administration; cited from earlier work"}, "[4]": {"system": "ovulation", "assay": "Clinical study of vaginal rings: ovulation inhibition, follicular maturation", "assay_type": "in vivo, women", "conditions": "used release rate of estriol alone", "experimental": "Testing of three vaginal ring prototypes (Device 1, Device 2, and Device 3, described above) in 12 women as preformed. The expected average release rate per day of each device is described in Table 2. Vaginal ring (VR) insertion was performed after pill cycle completion and menstrual bleeding. Observation of a VR over a period of 21 days. Follow-up after removal of the VR. All VR variants tested inhibit ovulation. Ovulation inhibition persisted for more than 7 days after removal of the rings. Signs of follicular maturation at the start of treatment (higher oestradiol levels) disappear during treatment. The effect reflects inhibition of follicular maturation. For the most part, there were no bleeding events during treatment at all and, where they did occur, only to a very small extent (“spotting”). Withdrawal bleeding was observed only after the highest trimegestone dosage.\nThe course of the estradiol levels in the circulation reflects follicular maturation in the ovary. FIG. 5 depicts the individual serum concentrations of estradiol during single vaginal application of Device 3. […] After removal of the vaginal ring, the estradiol values increase starting from baseline. This increase reflects follicular maturation. […] FIG. 6 depicts the individual serum concentrations of progesterone during single vaginal application of Device 3. […]"}, "[5]": {"molecular_target": "estrogen receptor ERß (Homo sapiens, UniProt Q92731)", "sequence (Q92731 whole entry)": "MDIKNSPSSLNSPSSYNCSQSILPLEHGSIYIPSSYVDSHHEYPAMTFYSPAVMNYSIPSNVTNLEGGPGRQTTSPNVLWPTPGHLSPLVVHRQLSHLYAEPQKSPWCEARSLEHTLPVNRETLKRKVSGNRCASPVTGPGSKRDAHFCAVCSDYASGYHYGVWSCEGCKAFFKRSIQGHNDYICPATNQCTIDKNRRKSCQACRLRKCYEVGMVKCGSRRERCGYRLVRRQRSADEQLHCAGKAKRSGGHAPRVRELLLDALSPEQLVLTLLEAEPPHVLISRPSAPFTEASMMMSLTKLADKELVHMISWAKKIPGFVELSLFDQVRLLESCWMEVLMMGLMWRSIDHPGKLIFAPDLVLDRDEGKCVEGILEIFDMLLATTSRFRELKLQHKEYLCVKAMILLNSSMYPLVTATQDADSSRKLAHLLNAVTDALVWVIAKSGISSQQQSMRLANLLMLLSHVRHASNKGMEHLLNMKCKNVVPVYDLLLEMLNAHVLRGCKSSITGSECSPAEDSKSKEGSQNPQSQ", "conditions": "cited from earlier work"}, "[6]": {"system": "ovine genital organs", "assay": "Experiments in sheep: estrogenic effect of estriol under trimegestone", "assay_type": "in vivo", "conditions": "on trimegestone", "description": "This estrogenic effect in the genital tract in the presence of a progestogen leads to prevention of spotting and intermenstrual bleeding in humans. Such bleedings on the “pill” are an expression of an endometrial estrogen deficiency."}, "[7]": {"system": "SHBG", "conditions": "women, entire range of tested doses; cited from earlier work"}}, "note": "Entries after “also recorded” stand apart in the source; their conditions may differ. Read-outs that look alike come from different tables or passages of the source."}
{"smiles": "C#C[C@]1(O)CC[C@H]2[C@@H]3CCc4cc(O)ccc4[C@H]3CC[C@@]21C", "note": "[EE, 17α-ethinyl estradiol]", "values": [{"measurement": "Oral bioavailability", "setting": "[1]; oral vs intravenous", "value": "about 40%"}, {"measurement": "First pass effect", "setting": "[1]; oral", "value": 60, "unit": "%"}]}
{"smiles": "C[C@]12CC[C@@H]3c4ccc(O)cc4CC[C@H]3[C@@H]1CC[C@@H]2O", "note": "[Estradiol-17ß]", "values": [{"measurement": "Oral bioavailability", "setting": "[2]", "value": "4.9+/−5%"}]}
{"smiles": "C[C@]12CC[C@@H]3c4ccc(O)cc4CC[C@H]3[C@@H]1C[C@@H](O)[C@@H]2O", "note": "[estriol]", "values": [{"measurement": "Estrogenic potency compared with estradiol", "setting": "[3]", "value": "about factor ten weaker"}, {"measurement": "Levels of FSH and LH", "setting": "[4]", "value": "decreased"}, {"measurement": "Binding with ERß compared with estradiol", "setting": "[5]", "value": "weaker and less stable binding"}, {"measurement": "Estrogenic effect of estriol in the genital tract in the presence of trimegestone", "setting": "[6]", "value": "is not inhibited; also recorded: are not attenuated"}, {"measurement": "Changes in surrogate parameter SHBG", "setting": "[7]", "value": "no relevant changes were seen"}]}
